Source: US7282504B2, “Kinase inhibitors” (Amgen Inc., priority 2000, dated 2007)

What was measured:
Type in all cases: biochemical
Met-1 = biological target: T1, Met-1 (Homo sapiens, UniProt P08581); assay: Kinase inhibition, 33P transfer to plate-bound substrate: Met-1
T1 construct: Kinases are expressed as either kinase domains or full-length constructs; made in house
Excerpt: (§1) The inhibitor compounds described herein are screened in the following manner. Kinases suitable for use in the following protocol to determine kinase activity of the compounds described herein include, but are not limited to: Lck, Lyn, Src, Fyn, Syk, Zap-70, Itk, Tec, Btk, EGFR, ErbB2, Kdr, Flt-1, Flt-3, Tek, c-Met, InsR, and AKT.
(§2) Kinases are expressed as either kinase domains or full-length constructs fused to glutathione S-transferase (GST) or polyHistidine tagged fusion proteins in either E. coli or Baculovirus-High Five expression systems. They are purified to near homogeneity by affinity chromatography essentially as previously described (Lehr et al., 1996; Gish et al., 1995). In some instances, kinases are co-expressed or mixed with purified or partially purified regulatory polypeptides prior to measurement of activity.
(§3) Kinase activity and inhibition are measured essentially by established protocols (Braunwalder et al., 1996). Briefly, The transfer of ^33PO4 from ATP to the synthetic substrates poly(Glu, Tyr) 4:1 or poly(Arg, Ser) 3:1 attached to the bioactive surface of microtiter plates serves as the basis to evaluate enzyme activity. After an incubation period, the amount of phosphate transferred is measured by first washing the plate with 0.5% phosphoric acid, adding liquid scintillant, and then counting in a liquid scintillation detector. The IC50 is determined by the concentration of compound that causes a 50% reduction in the amount of ^33P incorporated onto the substrate bound to the plate.

IGFR-1 = biological target: T2, IGFR-1 (Homo sapiens, UniProt P08069); assay: Kinase inhibition, 33P transfer to plate-bound substrate: IGFR-1
T2 construct: Kinases are expressed as either kinase domains or full-length constructs; made in house
Excerpt: as §1, §2, §3

ErbB2-1 = biological target: T3, ErbB2-1 (Homo sapiens, UniProt P04626); assay: Kinase inhibition, 33P transfer to plate-bound substrate: ErbB2-1
T3 construct: Kinases are expressed as either kinase domains or full-length constructs; made in house
Excerpt: as §1, §2, §3

ErbB4-1 = biological target: T4, ErbB4-1 (Homo sapiens, UniProt Q15303); assay: Kinase inhibition, 33P transfer to plate-bound substrate: ErbB4-1
T4 construct: Kinases are expressed as either kinase domains or full-length constructs; made in house
Excerpt: as §1, §2, §3

EGFR-1 = biological target: T5, EGFR-1 (Homo sapiens, UniProt P00533); assay: Kinase inhibition, 33P transfer to plate-bound substrate: EGFR-1
T5 construct: Kinases are expressed as either kinase domains or full-length constructs; made in house
T5 sequence (P00533 25-1210): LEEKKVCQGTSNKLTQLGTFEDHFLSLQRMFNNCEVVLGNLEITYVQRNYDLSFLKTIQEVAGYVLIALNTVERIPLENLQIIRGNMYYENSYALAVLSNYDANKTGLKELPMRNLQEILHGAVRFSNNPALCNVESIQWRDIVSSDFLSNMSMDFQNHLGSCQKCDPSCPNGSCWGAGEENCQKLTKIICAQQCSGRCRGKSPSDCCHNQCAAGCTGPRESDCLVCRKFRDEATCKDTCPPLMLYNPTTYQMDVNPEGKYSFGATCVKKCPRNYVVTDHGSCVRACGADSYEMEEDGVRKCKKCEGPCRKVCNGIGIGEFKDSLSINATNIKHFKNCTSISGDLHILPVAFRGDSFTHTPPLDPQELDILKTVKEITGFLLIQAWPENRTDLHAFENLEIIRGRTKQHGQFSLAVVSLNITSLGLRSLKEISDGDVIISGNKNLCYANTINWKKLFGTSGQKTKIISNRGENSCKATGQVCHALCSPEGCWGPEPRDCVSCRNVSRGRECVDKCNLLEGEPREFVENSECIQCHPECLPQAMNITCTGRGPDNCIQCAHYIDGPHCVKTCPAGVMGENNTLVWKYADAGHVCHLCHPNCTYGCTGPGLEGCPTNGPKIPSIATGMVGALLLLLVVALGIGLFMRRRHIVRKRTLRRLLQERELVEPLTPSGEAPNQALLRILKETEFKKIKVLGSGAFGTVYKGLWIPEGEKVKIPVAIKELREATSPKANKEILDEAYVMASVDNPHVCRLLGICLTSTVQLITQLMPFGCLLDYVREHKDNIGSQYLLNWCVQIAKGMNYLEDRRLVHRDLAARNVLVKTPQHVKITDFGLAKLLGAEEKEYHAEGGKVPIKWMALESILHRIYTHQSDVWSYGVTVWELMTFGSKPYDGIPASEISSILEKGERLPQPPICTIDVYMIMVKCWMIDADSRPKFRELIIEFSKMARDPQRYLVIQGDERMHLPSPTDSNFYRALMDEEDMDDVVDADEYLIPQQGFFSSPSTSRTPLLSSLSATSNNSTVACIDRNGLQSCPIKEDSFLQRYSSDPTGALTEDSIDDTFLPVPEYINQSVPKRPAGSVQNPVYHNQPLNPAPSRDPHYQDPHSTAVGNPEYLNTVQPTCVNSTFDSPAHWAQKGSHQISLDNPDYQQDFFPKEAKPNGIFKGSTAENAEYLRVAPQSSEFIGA
Excerpt: as §1, §2, §3

FGFR1-1 = biological target: T6, FGFR1-1 (Homo sapiens, UniProt P11362); assay: Kinase inhibition, 33P transfer to plate-bound substrate: FGFR1-1
T6 construct: Kinases are expressed as either kinase domains or full-length constructs; made in house
T6 sequence (P11362 22-822): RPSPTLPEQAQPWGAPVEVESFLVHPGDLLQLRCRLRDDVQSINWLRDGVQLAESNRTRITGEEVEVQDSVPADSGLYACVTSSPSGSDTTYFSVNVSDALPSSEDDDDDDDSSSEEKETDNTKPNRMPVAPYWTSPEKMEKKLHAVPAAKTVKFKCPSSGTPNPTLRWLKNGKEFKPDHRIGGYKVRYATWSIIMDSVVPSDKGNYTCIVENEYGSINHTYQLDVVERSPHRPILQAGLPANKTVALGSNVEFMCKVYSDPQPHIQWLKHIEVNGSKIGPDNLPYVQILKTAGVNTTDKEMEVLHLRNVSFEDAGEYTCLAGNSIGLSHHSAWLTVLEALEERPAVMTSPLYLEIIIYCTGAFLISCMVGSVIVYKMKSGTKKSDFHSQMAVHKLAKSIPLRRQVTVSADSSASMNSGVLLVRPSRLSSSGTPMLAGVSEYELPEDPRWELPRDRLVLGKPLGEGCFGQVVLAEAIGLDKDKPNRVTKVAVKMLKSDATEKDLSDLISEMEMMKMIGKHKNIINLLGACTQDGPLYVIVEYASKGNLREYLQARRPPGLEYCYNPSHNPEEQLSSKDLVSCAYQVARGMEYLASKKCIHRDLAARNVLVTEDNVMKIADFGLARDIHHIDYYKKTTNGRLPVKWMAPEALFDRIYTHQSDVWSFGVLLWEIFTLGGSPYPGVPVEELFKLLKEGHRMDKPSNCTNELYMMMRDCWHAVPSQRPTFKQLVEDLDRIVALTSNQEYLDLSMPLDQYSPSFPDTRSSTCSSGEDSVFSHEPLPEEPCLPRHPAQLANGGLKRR
Excerpt: as §1, §2, §3

Flt1-1 = biological target: T7, Flt1-1 (Homo sapiens, UniProt P17948); assay: Kinase inhibition, 33P transfer to plate-bound substrate: Flt1-1
T7 construct: Kinases are expressed as either kinase domains or full-length constructs; made in house
Excerpt: as §1, §2, §3

Lck-1 = biological target: T8, Lck-1 (Homo sapiens, UniProt P06239); assay: Kinase inhibition, 33P transfer to plate-bound substrate: Lck-1
T8 construct: Kinases are expressed as either kinase domains or full-length constructs; made in house
Excerpt: as §1, §2, §3

Fyn-1 = biological target: T9, Fyn-1 (Homo sapiens, UniProt P06241); assay: Kinase inhibition, 33P transfer to plate-bound substrate: Fyn-1
T9 construct: Kinases are expressed as either kinase domains or full-length constructs; made in house
T9 sequence (P06241 whole entry, the tested form may be a part): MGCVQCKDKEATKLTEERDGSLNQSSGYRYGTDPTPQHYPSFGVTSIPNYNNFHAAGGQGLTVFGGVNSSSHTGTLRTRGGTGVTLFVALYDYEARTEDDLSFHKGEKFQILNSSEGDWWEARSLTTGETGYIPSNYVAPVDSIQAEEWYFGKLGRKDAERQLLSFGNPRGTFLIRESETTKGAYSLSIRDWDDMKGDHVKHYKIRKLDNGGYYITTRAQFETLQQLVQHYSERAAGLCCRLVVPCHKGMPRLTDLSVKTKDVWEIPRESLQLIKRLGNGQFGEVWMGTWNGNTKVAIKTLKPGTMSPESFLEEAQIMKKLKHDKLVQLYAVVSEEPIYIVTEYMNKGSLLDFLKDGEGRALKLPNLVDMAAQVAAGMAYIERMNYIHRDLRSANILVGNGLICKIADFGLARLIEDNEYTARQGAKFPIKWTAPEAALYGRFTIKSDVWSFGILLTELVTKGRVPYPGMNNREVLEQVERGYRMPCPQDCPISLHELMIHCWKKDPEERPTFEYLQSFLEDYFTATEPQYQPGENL
Excerpt: as §1, §2, §3

KDR-1 = biological target: T10, KDR-1 (Homo sapiens, UniProt P35968); assay: Kinase inhibition, 33P transfer to plate-bound substrate: KDR-1
T10 construct: Kinases are expressed as either kinase domains or full-length constructs; made in house
Excerpt: as §1, §2, §3

InsR-1 = biological target: T11, InsR-1 (Homo sapiens, UniProt P06213); assay: Kinase inhibition, 33P transfer to plate-bound substrate: InsR-1
T11 construct: Kinases are expressed as either kinase domains or full-length constructs; made in house
Excerpt: as §1, §2, §3

Zap-1 = biological target: T12, Zap-1 (Homo sapiens, UniProt P43403); assay: Kinase inhibition, 33P transfer to plate-bound substrate: Zap-1
T12 construct: Kinases are expressed as either kinase domains or full-length constructs; made in house
T12 sequence (P43403 1-619): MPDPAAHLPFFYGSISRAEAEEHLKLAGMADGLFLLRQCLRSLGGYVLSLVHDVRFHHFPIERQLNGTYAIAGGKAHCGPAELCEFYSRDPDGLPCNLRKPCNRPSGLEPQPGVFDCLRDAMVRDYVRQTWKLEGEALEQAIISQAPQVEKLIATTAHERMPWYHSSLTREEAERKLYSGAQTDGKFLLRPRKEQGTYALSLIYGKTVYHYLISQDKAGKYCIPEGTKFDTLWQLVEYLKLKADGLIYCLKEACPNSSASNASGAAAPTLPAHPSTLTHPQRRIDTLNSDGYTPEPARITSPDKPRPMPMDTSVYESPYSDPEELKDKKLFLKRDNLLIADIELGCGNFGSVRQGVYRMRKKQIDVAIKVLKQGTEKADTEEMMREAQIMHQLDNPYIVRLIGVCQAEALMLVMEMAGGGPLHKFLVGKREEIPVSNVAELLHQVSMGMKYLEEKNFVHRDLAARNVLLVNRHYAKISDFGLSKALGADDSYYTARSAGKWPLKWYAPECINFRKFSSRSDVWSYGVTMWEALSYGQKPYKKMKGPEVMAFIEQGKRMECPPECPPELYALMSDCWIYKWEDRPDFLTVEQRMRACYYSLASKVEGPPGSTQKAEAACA
Excerpt: as §1, §2, §3

Lck-2 = biological target: T13, Lck-2 (Homo sapiens, UniProt P06239); assay: Kinase inhibition, 33P transfer to plate-bound substrate: Lck-2
T13 construct: Kinases are expressed as either kinase domains or full-length constructs; made in house
Excerpt: as §1, §2, §3

Akt3-1 = biological target: T14, Akt3-1 (Homo sapiens, UniProt Q9Y243); assay: Kinase inhibition, 33P transfer to plate-bound substrate: Akt3-1
T14 construct: Kinases are expressed as either kinase domains or full-length constructs; made in house
Excerpt: as §1, §2, §3

Lyn-1 = biological target: T15, Lyn-1 (Homo sapiens, UniProt P07948); assay: Kinase inhibition, 33P transfer to plate-bound substrate: Lyn-1
T15 construct: Kinases are expressed as either kinase domains or full-length constructs; made in house
Excerpt: as §1, §2, §3

Ret-1 = biological target: T16, Ret-1 (Homo sapiens, UniProt P07949); assay: Kinase inhibition, 33P transfer to plate-bound substrate: Ret-1
T16 construct: Kinases are expressed as either kinase domains or full-length constructs; made in house
Excerpt: as §1, §2, §3

Itk-1 = biological target: T17, Itk-1 (Homo sapiens, UniProt Q08881); assay: Kinase inhibition, 33P transfer to plate-bound substrate: Itk-1
T17 construct: Kinases are expressed as either kinase domains or full-length constructs; made in house
T17 sequence (Q08881 1-620): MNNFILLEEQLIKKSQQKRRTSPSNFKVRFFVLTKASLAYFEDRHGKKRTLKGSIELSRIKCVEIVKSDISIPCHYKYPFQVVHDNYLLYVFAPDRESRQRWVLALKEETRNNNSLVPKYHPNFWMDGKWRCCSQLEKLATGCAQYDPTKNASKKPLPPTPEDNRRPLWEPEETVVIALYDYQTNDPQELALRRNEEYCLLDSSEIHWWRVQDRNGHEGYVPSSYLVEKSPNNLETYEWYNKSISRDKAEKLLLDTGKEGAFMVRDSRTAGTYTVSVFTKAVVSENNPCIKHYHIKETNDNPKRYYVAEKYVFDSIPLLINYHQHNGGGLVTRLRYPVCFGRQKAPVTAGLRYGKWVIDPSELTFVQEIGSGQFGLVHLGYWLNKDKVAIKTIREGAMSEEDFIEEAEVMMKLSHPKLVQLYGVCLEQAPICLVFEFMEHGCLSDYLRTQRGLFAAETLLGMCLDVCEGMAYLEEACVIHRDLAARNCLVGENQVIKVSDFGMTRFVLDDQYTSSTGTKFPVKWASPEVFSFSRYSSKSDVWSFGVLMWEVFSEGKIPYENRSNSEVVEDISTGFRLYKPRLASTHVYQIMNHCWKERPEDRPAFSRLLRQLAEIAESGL
Excerpt: as §1, §2, §3

PDGFRB = biological target: T18, PDGFRB (Homo sapiens, UniProt P09619); assay: Kinase inhibition, 33P transfer to plate-bound substrate: PDGFRB
T18 construct: Kinases are expressed as either kinase domains or full-length constructs; made in house
Excerpt: as §1, §2, §3

Src-1 = biological target: T19, Src-1 (Homo sapiens, UniProt P12931); assay: Kinase inhibition, 33P transfer to plate-bound substrate: Src-1
T19 construct: Kinases are expressed as either kinase domains or full-length constructs; made in house
Excerpt: as §1, §2, §3

Hck-1 = biological target: T20, Hck-1 (Homo sapiens, UniProt P08631); assay: Kinase inhibition, 33P transfer to plate-bound substrate: Hck-1
T20 construct: Kinases are expressed as either kinase domains or full-length constructs; made in house
Excerpt: as §1, §2
as §3, with “The IC50 is determined by the concentration of compound that causes a 50% reduction in the amount of ^33P incorporated onto the substrate bound to the plate.” left out

Tek-1 = biological target: T21, Tek-1 (Homo sapiens, UniProt Q02763); assay: Kinase inhibition, 33P transfer to plate-bound substrate: Tek-1
T21 construct: Kinases are expressed as either kinase domains or full-length constructs; made in house
T21 sequence (Q02763 23-1124): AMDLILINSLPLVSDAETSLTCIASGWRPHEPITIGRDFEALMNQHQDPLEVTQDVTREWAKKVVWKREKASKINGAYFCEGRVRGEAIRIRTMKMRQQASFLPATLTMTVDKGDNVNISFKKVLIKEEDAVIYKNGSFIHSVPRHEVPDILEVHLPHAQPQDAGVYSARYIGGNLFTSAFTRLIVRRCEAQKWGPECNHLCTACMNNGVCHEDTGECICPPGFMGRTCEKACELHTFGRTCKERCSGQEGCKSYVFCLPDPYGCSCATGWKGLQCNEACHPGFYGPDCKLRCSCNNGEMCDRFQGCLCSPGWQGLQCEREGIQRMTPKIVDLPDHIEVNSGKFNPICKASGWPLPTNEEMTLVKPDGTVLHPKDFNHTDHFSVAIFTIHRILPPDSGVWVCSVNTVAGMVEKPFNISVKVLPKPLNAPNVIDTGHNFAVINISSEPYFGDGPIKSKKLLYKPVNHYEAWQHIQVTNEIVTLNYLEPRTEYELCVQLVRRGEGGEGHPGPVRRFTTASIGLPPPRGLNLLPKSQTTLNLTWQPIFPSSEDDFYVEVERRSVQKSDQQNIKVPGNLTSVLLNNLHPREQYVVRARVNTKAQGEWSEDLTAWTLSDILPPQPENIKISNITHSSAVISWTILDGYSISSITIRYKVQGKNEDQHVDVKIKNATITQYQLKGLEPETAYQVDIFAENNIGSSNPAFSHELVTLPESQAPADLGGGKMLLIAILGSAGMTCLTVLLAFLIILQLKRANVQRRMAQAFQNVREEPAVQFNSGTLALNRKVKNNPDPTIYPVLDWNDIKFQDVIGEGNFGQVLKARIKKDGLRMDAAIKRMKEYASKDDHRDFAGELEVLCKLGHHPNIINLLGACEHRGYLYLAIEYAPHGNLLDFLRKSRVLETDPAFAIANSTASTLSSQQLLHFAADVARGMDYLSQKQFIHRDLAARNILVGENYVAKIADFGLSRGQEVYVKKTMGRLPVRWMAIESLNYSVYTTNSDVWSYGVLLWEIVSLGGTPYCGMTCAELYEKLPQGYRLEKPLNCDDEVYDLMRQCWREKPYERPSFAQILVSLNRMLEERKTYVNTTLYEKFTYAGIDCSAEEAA
Excerpt: as §1, §2, §3

T1 sequence (P08581 25-1390): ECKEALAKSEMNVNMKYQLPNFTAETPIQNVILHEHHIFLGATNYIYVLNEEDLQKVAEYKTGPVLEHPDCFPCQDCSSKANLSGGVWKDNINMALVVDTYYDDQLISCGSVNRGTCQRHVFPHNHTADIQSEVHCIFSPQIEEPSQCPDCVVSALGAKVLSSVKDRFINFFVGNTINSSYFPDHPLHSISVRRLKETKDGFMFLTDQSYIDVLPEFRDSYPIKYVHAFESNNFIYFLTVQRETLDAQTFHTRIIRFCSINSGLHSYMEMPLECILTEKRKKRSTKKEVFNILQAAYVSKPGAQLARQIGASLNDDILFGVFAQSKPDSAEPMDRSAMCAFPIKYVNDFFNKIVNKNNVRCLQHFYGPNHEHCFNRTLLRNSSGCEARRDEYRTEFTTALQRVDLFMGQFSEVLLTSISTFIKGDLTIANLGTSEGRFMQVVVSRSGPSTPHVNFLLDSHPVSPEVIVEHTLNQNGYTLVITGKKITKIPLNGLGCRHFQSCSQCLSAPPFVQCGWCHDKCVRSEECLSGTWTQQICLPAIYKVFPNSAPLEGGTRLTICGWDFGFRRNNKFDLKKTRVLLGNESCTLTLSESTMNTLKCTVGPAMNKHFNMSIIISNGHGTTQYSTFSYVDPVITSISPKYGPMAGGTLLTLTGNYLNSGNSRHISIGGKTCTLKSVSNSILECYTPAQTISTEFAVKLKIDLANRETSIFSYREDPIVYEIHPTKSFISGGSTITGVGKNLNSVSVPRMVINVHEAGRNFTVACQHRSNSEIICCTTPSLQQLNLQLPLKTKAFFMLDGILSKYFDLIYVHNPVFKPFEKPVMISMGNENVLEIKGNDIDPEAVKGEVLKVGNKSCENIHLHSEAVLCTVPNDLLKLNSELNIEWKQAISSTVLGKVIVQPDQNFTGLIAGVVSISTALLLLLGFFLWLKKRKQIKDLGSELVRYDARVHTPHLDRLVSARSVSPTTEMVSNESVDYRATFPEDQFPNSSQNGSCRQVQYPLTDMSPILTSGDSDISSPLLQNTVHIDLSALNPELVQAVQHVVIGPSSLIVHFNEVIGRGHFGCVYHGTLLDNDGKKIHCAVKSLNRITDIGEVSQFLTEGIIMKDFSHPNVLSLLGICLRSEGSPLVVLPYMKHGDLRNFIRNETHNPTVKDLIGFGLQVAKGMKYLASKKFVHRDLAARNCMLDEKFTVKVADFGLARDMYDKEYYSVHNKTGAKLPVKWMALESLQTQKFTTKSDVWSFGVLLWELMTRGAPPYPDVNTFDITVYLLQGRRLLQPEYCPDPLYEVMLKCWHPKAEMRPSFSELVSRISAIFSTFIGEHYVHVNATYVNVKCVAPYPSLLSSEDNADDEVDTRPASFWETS

IC50 (Met-1): 1.5 to 5 µM
IC50 (IGFR-1): < 1500 nM
IC50 (ErbB2-1): ≥ 10 µM
IC50 (ErbB4-1): ≥ 10 µM
IC50 (EGFR-1): ≥ 10 µM
IC50 (FGFR1-1): < 1500 nM
IC50 (Flt1-1): < 1500 nM
IC50 (Lck-1): 1.5 to 5 µM
IC50 (Fyn-1): 5 to 10 µM
IC50 (KDR-1): < 1500 nM
IC50 (InsR-1): 1.5 to 5 µM
IC50 (Zap-1): 1.5 to 5 µM
IC50 (Lck-2): 1.5 to 5 µM
IC50 (Akt3-1): ≥ 10 µM
IC50 (Lyn-1): 1.5 to 5 µM
IC50 (Ret-1): < 1500 nM
IC50 (Itk-1): ≥ 10 µM
IC50 (PDGFRB): < 1500 nM
IC50 (Src-1): 5 to 10 µM
IC50 (Hck-1): ≥ 10 µM
IC50 (Tek-1): 5 to 10 µM
Compound: COc1cc(Nc2nccc(-n3c(=O)[nH]c4ccccc43)n2)cc(OC)c1OC [Compound 3]
